Values after ≈ are worked out from the molar mass of the structure shown. Where two headings read alike, the source gives them in different places.
Columns and labels:
[1] = test system: A549 (Human lung adenocarcinoma epithelial cell line); test: Anti-cancer screening, A549 cell proliferation; assay type: cell-based; conditions: for IC50: concentration required to inhibit 50% of the cell proliferation; for IC90: concentration required to inhibit 90% of the cell proliferation, read-out: MIC
[2] = test system: HeLa (Human Cervix epithelioid carcinoma cell line); test: Anti-cancer screening, HeLa cell proliferation; assay type: cell-based; conditions: for IC50: concentration required to inhibit 50% of the cell proliferation; for IC90: concentration required to inhibit 90% of the cell proliferation, read-out: MIC
[3] = test system: Panc-1 (Human pancreas carcinoma cell line); test: Anti-cancer screening, Panc-1 cell proliferation; assay type: cell-based; conditions: for IC50: concentration required to inhibit 50% of the cell proliferation; for IC90: concentration required to inhibit 90% of the cell proliferation, read-out: MIC
[4] = test system: THP-1 (Human acute monocytic leukemia cell line); test: Anti-cancer screening, THP-1 cell proliferation; assay type: cell-based; conditions: for IC50: concentration required to inhibit 50% of the cell proliferation; for IC90: concentration required to inhibit 90% of the cell proliferation, read-out: MIC
M. Tuberculosis [5] = test: Anti TB ex vivo infection model, dormant; assay type: cell-based; conditions: Mycobacterium tuberculosis
[6] = test system: M. Tuberculosis H37Ra (ACTIVE); test: Anti TB in vitro, active; assay type: cell-based, Mycobacterium tuberculosis H37Ra; conditions: Mycobacterium tuberculosis
[7] = test system: M. Tuberculosis H37Ra (DORMANT); test: Anti TB in vitro, dormant; assay type: cell-based, Mycobacterium tuberculosis H37Ra; conditions: Mycobacterium tuberculosis
M. Tuberculosis [8] = test: Anti TB ex vivo infection model, active; assay type: cell-based; conditions: Mycobacterium tuberculosis
[9] = In Vitro, H37Ra ACTIVE, read-out: IC 50
[10] = In Vitro, H37Ra ACTIVE, read-out: MIC
[11] = In Vitro, H37Ra DORMANT, read-out: IC 50
[12] = In Vitro, H37Ra DORMANT, read-out: MIC

SMILES | IC50 [1] | IC90 [1] | IC50 [2] | IC90 [2] | IC50 [3] | IC90 [3] | IC50 [4] | IC90 [4] | IC50 (M. Tuberculosis [5]) | MIC (M. Tuberculosis [5]) | IC50 [6, 9] | MIC [6, 10] | IC50 [7, 11] | MIC [7, 12] | IC50 (M. Tuberculosis [8]) | MIC (M. Tuberculosis [8]) | melting point | other results
COC(=O)CC[C@@H](C)C1CCC2C3C([C@H](n4cc(-c5ccccc5)nn4)C(=O)[C@@]21C)[C@@]1(C)CC[C@@H](OC(C)=O)C[C@H]1C[C@H]3OC(C)=O (stereo partly drawn) [Compound 1, (3R,5S,7R,10S,11S,13R)-17-((R)-5-methoxy-5-oxopentan-2-yl)-10,13-dimethyl-12-oxo-11-(4-phenyl-1H-1,2,3-triazol-1-yl)hexadecahydro-1H-cyclopenta[a]phenanthrene-3,7-diyl diacetate] | > 100 µg/mL | > 100 µg/mL | 7.02 µg/mL | 99.1 µg/mL | > 100 µg/mL | > 100 µg/mL | > 100 µg/mL | > 100 µg/mL | – | – | – | – | – | – | – | – | – | –
CCCCCCc1cn([C@@H]2C(=O)[C@@]3(C)C(CCC3[C@H](C)CCC(=O)OC)C3C2[C@@]2(C)CC[C@@H](OC(C)=O)C[C@H]2C[C@H]3OC(C)=O)nn1 (stereo partly drawn) [Compound 2, (3R,5S,7R,10S,11S,13R)-11-(4-hexyl-1H-1,2,3-triazol-1-yl)-17-((R)-5-methoxy-5-oxopentan-2-yl)-10,13-dimethyl-12-oxohexadecahydro-1H-cyclopenta[a]phenanthrene-3,7-diyl diacetate] | > 100 µg/mL | > 100 µg/mL | 6.59 µg/mL | > 100 µg/mL | > 100 µg/mL | > 100 µg/mL | > 100 µg/mL | > 100 µg/mL | 0.13 µg/mL | 1.55 µg/mL | 0.64 µg/mL | 2.63 µg/mL | 0.17 µg/mL | 2.43 µg/mL | 0.25 µg/mL | 2.8 µg/mL | – | –
COC(=O)CC[C@@H](C)C1CCC2C3C([C@H](n4cc(-c5ccc(F)cc5)nn4)C(=O)[C@@]21C)[C@@]1(C)CC[C@@H](OC(C)=O)C[C@H]1C[C@H]3OC(C)=O (stereo partly drawn) [Compound 3, (3R,5S,7R,10S,11S,13R)-11-(4-(4-fluorophenyl)-1H-1,2,3-triazol-1-yl)-17-((R)-5-methoxy-5-oxopentan-2-yl)-10,13-dimethyl-12-oxohexadecahydro-1H-cyclopenta[a]phenanthrene-3,7-diyl diacetate] | > 100 µg/mL | > 100 µg/mL | 9.76 µg/mL | > 100 µg/mL | > 100 µg/mL | > 100 µg/mL | > 100 µg/mL | > 100 µg/mL | – | – | – | – | – | – | – | – | – | –
COC(=O)CC[C@@H](C)C1CCC2C3C([C@H](n4cc(-c5ccccn5)nn4)C(=O)[C@@]21C)[C@@]1(C)CC[C@@H](OC(C)=O)C[C@H]1C[C@H]3OC(C)=O (stereo partly drawn) [Compound 4, (3R,5S,7R,10S,11S,13R)-17-((R)-5-methoxy-5-oxopentan-2-yl)-10,13-dimethyl-12-oxo-11-(4-(pyridin-2-yl)-1H-1,2,3-triazol-1-yl)hexadecahydro-1H-cyclopenta[a]phenanthrene-3,7-diyl diacetate] | > 100 µg/mL | > 100 µg/mL | 15.2 µg/mL | 85.9 µg/mL | > 100 µg/mL | > 100 µg/mL | > 100 µg/mL | > 100 µg/mL | – | – | – | – | – | – | – | – | – | –
CCOC(=O)N[C@@H]1C(=O)[C@@]2(C)C(CCC2[C@H](C)CCC(=O)OC)C2C1[C@@]1(C)CC[C@@H](OC(C)=O)C[C@H]1C[C@H]2OC(C)=O (stereo partly drawn) [Compound 5, (3R,5S,7R,10S,11S,13R)-11-((ethoxycarbonyl)amino)-17-((R)-5-methoxy-5-oxopentan-2-yl)-10,13-dimethyl-12-oxohexadecahydro-1H-cyclopenta[a]phenanthrene-3,7-diyl diacetate] | > 100 µg/mL | > 100 µg/mL | 34.2 µg/mL | > 100 µg/mL | > 100 µg/mL | > 100 µg/mL | > 100 µg/mL | > 100 µg/mL | – | – | – | – | – | – | – | – | 82 to 85 °C | –
COC(=O)CC[C@@H](C)C1CCC2C3C([C@H](NC(=O)C4CCCN4)C(=O)[C@@]21C)[C@@]1(C)CC[C@@H](OC(C)=O)C[C@H]1C[C@H]3OC(C)=O (stereo partly drawn) [Compound 6, (3R,5S,7R,10S,11S,13R)-17-((R)-5-methoxy-5-oxopentan-2-yl)-10,13-dimethyl-12-oxo-11-(pyrrolidine-2-carboxamido)hexadecahydro-1H-cyclopenta[a]phenanthrene-3,7-diyl diacetate] | > 100 µg/mL | > 100 µg/mL | > 100 µg/mL | > 100 µg/mL | > 100 µg/mL | > 100 µg/mL | > 100 µg/mL | > 100 µg/mL | – | – | – | – | – | – | – | – | 102.6 to 103.8 °C | –
COC(=O)CC[C@@H](C)C1CCC2C3C([C@H](NC(=O)C(CO)NC(=O)OC(C)(C)C)C(=O)[C@@]21C)[C@@]1(C)CC[C@@H](OC(C)=O)C[C@H]1C[C@H]3OC(C)=O (stereo partly drawn) [Compound 7, (3R,5S,7R,10S,11S,13R)-11-(2-((tert-butoxycarbonyl)amino)-3-hydroxypropanamido)-17-((R)-5-methoxy-5-oxopentan-2-yl)-10,13-dimethyl-12-oxohexadecahydro-1H-cyclopenta[a]phenanthrene-3,7-diyl diacetate] | > 100 µg/mL | > 100 µg/mL | 18.2 µg/mL | > 100 µg/mL | > 100 µg/mL | > 100 µg/mL | 76.2 µg/mL | > 100 µg/mL | 1.32 µg/mL | 23.8 µg/mL | 1.24 µg/mL | 9.03 µg/mL | 0.58 µg/mL | 8.6 µg/mL | 1.96 µg/mL | 27.3 µg/mL | – | –
COC(=O)CC[C@@H](C)C1CCC2C3C([C@H](n4nnc5ccccc54)C(=O)[C@@]21C)[C@@]1(C)CC[C@@H](OC(C)=O)C[C@H]1C[C@H]3OC(C)=O (stereo partly drawn) [Compound 8, (3R,5S,7R,10S,11S,13R)-11-(1H-benzo[d][1,2,3]triazol-1-yl)-17-((R)-5-methoxy-5-oxopentan-2-yl)-10,13-dimethyl-12-oxohexadecahydro-1H-cyclopenta[a]phenanthrene-3,7-diyl diacetate] | 20 µg/mL | > 100 µg/mL | 20.3 µg/mL | > 100 µg/mL | 50 µg/mL | > 100 µg/mL | 29.9 µg/mL | > 100 µg/mL | 1.65 µg/mL | 8.16 µg/mL | 1.08 µg/mL | 9.79 µg/mL | 1.27 µg/mL | 7.15 µg/mL | 1.11 µg/mL | 8.6 µg/mL | 106 to 109 °C | –
COC(=O)CC[C@@H](C)C1CCC2C3C([C@H](NC(=O)C4CCCN4C(=O)OC(C)(C)C)C(=O)[C@@]21C)[C@@]1(C)CC[C@@H](OC(C)=O)C[C@H]1C[C@H]3OC(C)=O (stereo partly drawn) [Compound 9, (3R,5S,7R,10S,11S,13R)-11-(1-(tert-butoxycarbonyl)pyrrolidine-2-carboxamido)-17-((R)-5-methoxy-5-oxopentan-2-yl)-10,13-dimethyl-12-oxohexadecahydro-1H-cyclopenta[a]phenanthrene-3,7-diyldiacetate] | 52 µg/mL (≈ 72.5 µM) | > 100 µg/mL | 18.6 µg/mL (≈ 25.9 µM) | > 100 µg/mL | 15 µg/mL (≈ 20.9 µM) | > 100 µg/mL | 46 µg/mL (≈ 64.1 µM) | > 100 µg/mL | 3.42 µg/mL (≈ 4.77 µM) | 26.3 µg/mL (≈ 36.7 µM) | 0.92 µg/mL (≈ 1.28 µM) | 9.41 µg/mL (≈ 13.1 µM) | 2.02 µg/mL (≈ 2.82 µM) | 8.91 µg/mL (≈ 12.4 µM) | 4.16 µg/mL (≈ 5.8 µM) | 26.8 µg/mL (≈ 37.4 µM) | 114 to 118 °C | –
COC(=O)CC[C@@H](C)C1CCC2C3C([C@H](NC(C)C)C(=O)[C@@]21C)[C@@]1(C)CC[C@@H](OC(C)=O)C[C@H]1C[C@H]3OC(C)=O (stereo partly drawn) [Compound 10, (3R,5S,7R,10S,11S,13R)-11-(isopropylamino)-17-((R)-5-methoxy-5-oxopentan-2-yl)-10,13-dimethyl-12-oxohexadecahydro-1H-cyclopenta[a]phenanthrene-3,7-diyl diacetate] | > 100 µg/mL | > 100 µg/mL | 11.6 µg/mL | > 100 µg/mL | > 100 µg/mL | > 100 µg/mL | > 100 µg/mL | > 100 µg/mL | – | – | – | – | – | – | – | – | – | –
NNC(=O)c1ccncc1 [ISONIAZID, reference compound] | – | – | – | – | – | – | – | – | 0.0024 µg/mL (≈ 0.0175 µM) | 0.0078 µg/mL (≈ 0.0569 µM) | – | – | – | – | 0.0024 µg/mL (≈ 0.0175 µM) | 0.075 µg/mL (≈ 0.547 µM) | – | IC50 ([6]; H37RA): 0.0019 µg/mL (≈ 0.0139 µM); MIC ([6]; H37RA): 0.074 µg/mL (≈ 0.54 µM); IC50 ([7]; H37RA): 0.0023 µg/mL (≈ 0.0168 µM); MIC ([7]; H37RA): 0.075 µg/mL (≈ 0.547 µM)
CC(=O)O[C@H]1C(=O)[C@@]2(C)[C@H]([C@H](OC(=O)c3ccccc3)[C@]3(O)C[C@H](OC(=O)[C@H](O)[C@@H](NC(=O)c4ccccc4)c4ccccc4)C(C)=C1C3(C)C)[C@]1(OC(C)=O)CO[C@@H]1C[C@@H]2O [Paclitaxel, reference compound] | 0.0035 µg/mL (≈ 0.0041 µM) | 0.0706 µg/mL (≈ 0.0827 µM) | 0.0048 µg/mL (≈ 0.00562 µM) | 0.075 µg/mL (≈ 0.0878 µM) | 0.128 µg/mL (≈ 0.15 µM) | 5.71 µg/mL (≈ 6.69 µM) | 0.137 µg/mL (≈ 0.161 µM) | 5.81 µg/mL (≈ 6.81 µM) | – | – | – | – | – | – | – | – | – | –
CO[C@H]1/C=C/O[C@@]2(C)Oc3c(C)c(O)c4c(O)c(c(/C=N/N5CCN(C)CC5)c(O)c4c3C2=O)NC(=O)/C(C)=C\C=C\[C@H](C)[C@H](O)[C@@H](C)[C@@H](O)[C@@H](C)[C@H](OC(C)=O)[C@@H]1C [RIFAMPICIN, reference compound] | – | – | – | – | – | – | – | – | 0.0018 µg/mL (≈ 0.00219 µM) | 0.048 µg/mL (≈ 0.0583 µM) | 0.0018 µg/mL (≈ 0.00219 µM) | 0.048 µg/mL (≈ 0.0583 µM) | 0.0014 µg/mL (≈ 0.0017 µM) | 0.043 µg/mL (≈ 0.0523 µM) | 0.0021 µg/mL (≈ 0.00255 µM) | 0.051 µg/mL (≈ 0.062 µM) | – | –

Source: US10000527B2, “11-substituted bile acid derivatives, process for the preparation thereof and use of these compounds as medicaments” (priority 2013, dated 2018)
